# Measured values as given in PMC5428013, “Peptide-Au Clusters Induced Tumor Cells Apoptosis via Targeting Glutathione Peroxidase-1: The Molecular Dynamics Assisted Experimental Studies” (Scientific Reports, 2017).
# Entries after “also recorded” stand apart in the source; their conditions may differ.
# Tests used:
# [1] = system: GPx-1; assay: GPx-1 enzyme activity suppression in buffer; type: biochemical, bovine; conditions: 10 min
# Excerpt: The peptides (N2H-CCYGGPEEEEEVG-COOH (named P1), NH2-CCYGGPDDDEDVG-COOH (named P2) and NH2-CCYGGPEEVEEVG-COOH (named P3)) were chemically synthesized by a solid phase method (China Peptides Co. Ltd, Purity: 98%). Hydrogen tetrachloroaurate (III) (HAuCl4·4H2O) was purchased from Sinopharm Chemical Reagent Co. Ltd. Sodium hydroxide (NaOH), nitric acid (HNO3), hydrochloric acid (HCl) and hydrogen peroxide (H2O2) were purchased from Beijing Chemical Reagent Co., China. Human non-small cell lung carcinoma cells (A549 cells), Henrietta Lacks strain of cancer cells (Hela cells) and human colon adenocarcinoma cells (HCT-8 cells) were from Cancer Institute and Hospital, Chinese Academy of Medical Sciences. Fetal bovine serum (FBS) and trypsin-EDTA were obtained from Gibco, USA. Penicillin-streptomycin solution, cell culture medium DMEM and RPMI 1640 were purchased from Hyclone. Hoechst 33342, LysoTracker®Green DND-26, and CM-H2DCFDA were from Molecular Probes, USA. NucView™ 488 Caspase-3 Assay Kit was bought from Biotium, USA. 5,5′,6,6′-tetrachloro-1,1′,3,3′-tetraethylbenzimidazolocarbocyanine iodide (JC-1), cell lysis buffer for Western and IP, phenylmethanesulfonyl fluoride (PMSF) and BCA Protein Assay Kit were obtained from Beyotime Institute of Biotechnology, China. Protease inhibitor cocktail tablets were from Roche Diagnostics, GmbH, Mannheim, Germany. Cell counting kit-8 (CCK-8) reagents and Annexin V-FITC/Propidium (PI) Apoptosis Detection Kit were purchased from Dojindo Laboratories, Japan. GPx from bovine erythrocytes […] was provided by Sigma Aldrich, USA. GPx Activity Colorimetric Assay Kit was provided by Biovision, USA. Anti-GPx-1 antibody was offered by Abcam, UK. PARP antibody, caspase-3 antibody and β-actin antibody were offered by Cell Signaling Technology, USA. Amicon ultra centrifugal filter devices (Merck Millipore, MWCO: 10 kDa) were used for purification steps. Ultrapure Millipore (Mini-Q) water (18.2 MΩ) was used throughout the experiments. […]
# Pure GPx (lyophilized powder, ≥300 units/mg protein) were diluted by GPx sample buffer and incubated with peptide-Au clusters (Au25P1_9, Au25P2_9 and Au25P3_9) at a series of Au dose (0, 25, 100, 400 μM) for 10 min, respectively. […] The GPx activity of untreated samples was set as 100%, and that of peptide-Au clusters treated samples were expressed as a relative percentage of untreated ones.
# Figure S12. Peptide-Au clusters treated GPx-1 activity measured in buffer solution. The decrease in NADPH absorbance measured at 340 nm during the oxidation of NADPH to NADP is the indicative of GPx activity,^1, 2 which is in a dose dependent manner in tube experiments when treated with serial doses of peptide-Au clusters.
# [2] = system: A549 cells; assay: Mitochondrial membrane potential assay (JC-1); type: cell-based, human; conditions: 800 µM Au, 48 h, JC-1, CLSM
# Procedure: Disruption of ΔΨm is an important step in the induction of cellular apoptosis. JC-1, a sensitive mitochondrial dye, was used to evaluate the ΔΨm. JC-1 can aggregates in the mitochondrial matrix to yield red fluorescence (λem = 590 nm) at high mitochondrial membrane potential, while JC-1 monomer has green fluorescence at low mitochondrial membrane potential (λem = 527 nm). Therefore, using JC-1 easily signals the loss of ΔΨm, an event of early cell apoptosis. After treated with 800 µM of Au25P1_9 for 48 h on glass-bottom dish, cells were stained with JC-1 at 37 °C for 20 min under darkness. Then, cells were washed twice with cold buffer solution and JC-1 fluorescence inside cells was immediately observed by CLSM.
# [3] = system: PARP; assay: Cleaved PARP level, western blotting; type: cell-based, human; conditions: serial Au doses (0, 100, 200, 400, 800 μM), 48 h
# Procedure: The expression of GPx-1, caspase-3 and PARP from Au25P1_9 treated A549 cells were analyzed by western blotting. A549 cells were prior seeded on 6-well plate (at the density of 1 × 10^5 cells/well) for 24 h. Then the medium was discarded and fresh culture medium with Au25P1_9 at different doses was added to make cells exposed to final Au doses at 0, 100, 200, 400 and 800 μM, respectively. After another 48 h incubation, the cells were harvested and lysed by cell lysis buffer for Western and IP (containing 20 mM Tris-HCl, pH7.5, 150 mM NaCl, 1% Triton X-100, sodium pyrophosphate, β-glycerophosphate, EDTA, Na3VO4 and leupeptin), protease inhibitor cocktail tablet and 1 mM PMSF for 15 min on a shaker at 4 °C. The lysed cells were collected and centrifuged for 15 min at 12,000 g to get total protein of cells. The protein dose of each sample was prior quantified, and then loading buffer was added. After boiling for 5 min, the protein samples with equal amount were separated on 12% SDS polyacrylamide gel electrophoresis and then transferred onto the polyvinylidene difluoride (PVDF) membrane. Membrane was blocked by 5% nonfat dried milk prepared in tris(hydroxymethyl)amin omethane-NaCl-Tween 20 (TBST) at room temperature for 1 h, and then incubated with primary antibodies specific to β-actin, Caspase-3, PARP and GPx-1 at 4 °C overnight, respectively. […]
# [4] = system: A549 cells; assay: Cell viability assay (CCK-8), A549; type: cell-based, human; conditions: 48 h; for cell viability suppression by peptide-Au clusters (words): A549, Au dose 0, 50, 100, 200, 400, 800 µM
# Procedure: (§1) Briefly, cells were prior cultured on 96-well plates (at the density of 5 × 10^3 cells/well) for 24 h to allow cells attachment. The cells were treated with different doses of these free peptides (0, 1, 4, 16, 64, 256, 1024 µM) and peptide-Au clusters (0, 50, 100, 200, 400, 800 µM in Au dose) for 48 h, respectively. The cells were washed three times with PBS and then incubated with fresh growth medium containing 10% (v/v) CCK-8 reagent for 1 h at 37 °C for cell viability assay. The absorbance was measured at 450 nm by using a microplate reader (SpectraMAX M2, Sunnyvale, California). Cell viability of untreated cells was set as 100%, and that of treated cells were expressed as a relative percentage of untreated cells. All data were shown as mean percentages ± standard deviation from three independent experiments.
# [5] = system: HCT-8 cells; assay: Cell viability assay (CCK-8), HCT-8; type: cell-based, human; conditions: HCT-8, same condition as A549
# Procedure: as §1
sequence,measurement,setting,value
"CCYGGPEEEEEVG [Au25P1_9, Au25 cluster coated by nine P1 peptides (…)]",GPx-1 activity suppression in buffer,"[1]; Au dose 0, 25, 100, 400 μM",exhibits the best suppression capacity for GPx-1; also recorded: the most effective candidate for suppression of GPx-1 activity in buffer and cells
same,GPx-1 activity (relative to untreated = 100%),"[1]; buffer, Au dose of 400 μM, GPx Activity Colorimetric Assay Kit, NADPH absorbance at 340 nm",12%
same,mitochondrial membrane potential change,[2],"a red to green emission shift can be observed in most cells after treated with Au25P1_9, indicating mitochondria depolarization"
same,cleaved PARP level,[3],Au dose-dependent increase of cleaved caspases-3 and cleaved PARP levels
same,cell viability suppression by peptide-Au clusters (words),[4],can suppress cell viability
same,cell viability suppression by peptide-Au clusters (words),[4]; listed as Au25P19,exhibits the best suppression capacity for A549 cell viability
same,cell viability (relative to untreated = 100%),"[4]; A549, Au dose of 800 μM, CCK-8, mean from three independent experiments",40%
same,change of cell viability,[5],almost negligible
